Test results from EP0326329B1, “Quinazoline derivatives useful as insecticides” (Dow AgroSciences LLC, priority 1988, dated 1989).
Read-outs that look alike come from different tables or passages of the source.

What was measured:
Type in all cases: in vivo
[1] = system: southern armyworm (Spodopetra eridania Cramer); assay: Mite/insect screen, sprayed squash leaves (SAW); settings: percent mortality; for mortality at 200 ppm / mortality at 400 ppm: Spodoptera eridania, read-out: SAW RESULTS %; for SAW RESULTS %: rate not given
Description: (§1) The compounds of Examples 1-203 were tested for miticidal and insecticidal activity in the following mite/insect screen.
(§2) Each test compound was formulated by dissolving the compound in acetone/alcohol (50:50) mixture containing 23 g of "TOXIMUL R" (sulfonate/nonionic emulsifier blend) and 13 g of "TOXIMUL S" (sulfonate/nonionic emulsifier blend) per liter. These mixtures were then diluted with water to give the indicated concentrations.
(§3) Other plants in the same treatment pot were left uninfested. The leaves were then sprayed with 5 ml of test solution using a DeVilbiss atomizing sprayer at 10 psi. Both surfaces of the leaves were covered until runoff, and then allowed to dry for one hour. Two uninfested leaves were then excised and placed into a Petri dish containing larval southern armyworm (Spodopetra eridania Cramer).
(§4) After standard exposure periods, percent mortality and phytotoxicity were evaluated. […]

[2] = system: Erysiphe graminis tritici (powdery mildew); assay: Greenhouse Test 1, foliar spray fungicide screen (POWD MDEW), host wheat; settings: disease control rating, 400 ppm (+++ at 100 ppm)
[3] = system: Southern corn rootworm (Diabrotica undecimpuctata howardi Barber); assay: Mite/insect screen, soil treatment (CRW); settings: percent mortality; for mortality at 12 ppm / mortality at 24 ppm: Diabrotica, soil treatment, read-out: CRW RESULTS %; for CRW RESULTS %: rate not given
Description: as §1, §2
Activity on Southern corn rootworm (Diabrotica undecimpuctata howardi Barber) was evaluated by adding two ml of tap water, a presoaked corn seed, and 15 g of dry sandy soil to a one ounce plastic container. The soil was treated with 1 mL of test solution containing a pre-determined concentration of test compound. After six to 12 hours of drying, five 2-3 instar corn rootworm larvae were added to the individual cups, which were then capped and held at 23°C.
as §4

[4] = system: Botrytis cinerea (gray mold); assay: Greenhouse Test 1, foliar spray fungicide screen (GRAY MOLD), host grape berries; settings: disease control rating, 400 ppm (+++ at 100 ppm)
[5] = system: Twospotted spider mites (Tetranychus urticae Koch); assay: Mite/insect screen, sprayed squash cotyledons (SM); settings: percent mortality; for mortality at 200 ppm / mortality at 400 ppm: Tetranychus urticae, read-out: SM RESULTS %; for SM RESULTS %: rate not given
Description: as §1, §2, §3, §4

[6] = system: melon aphids (Aphis gossypii Glover); assay: Mite/insect screen, sprayed squash cotyledons (MA); settings: percent mortality; for mortality at 200 ppm / mortality at 400 ppm: Aphis gossypii, read-out: MA RESULTS %; for MA RESULTS %: rate not given
Description: as §1, §2, §3, §4

[7] = system: Pseudoperonospora cubensis (downy mildew); assay: Greenhouse Test 1, foliar spray fungicide screen (DOWN MDEW), host squash; settings: disease control rating, 400 ppm (+++ at 100 ppm)
[8] = system: Puccinia recondita tritici (leaf rust); assay: Greenhouse Test 1, foliar spray fungicide screen (LEAF RUST), host wheat; settings: disease control rating, 400 ppm (+++ at 100 ppm)
[9] = system: Pyricularia oryzae (rice blast); settings: disease control rating, foliar spray, host rice; 400 ppm (+++ at 100 ppm)

| SMILES | mortality at 200 ppm ([1]; spray rate 200 ppm) [%] | mortality at 400 ppm ([1]; spray rate 400 ppm) [%] | POWD MDEW [2] | mortality at 12 ppm ([3]; CRW rate 12.00 ppm) [%] | mortality at 24 ppm ([3]; CRW rate 24.00 ppm) [%] | GRAY MOLD [4] | mortality at 200 ppm ([5]; spray rate 200 ppm) [%] | mortality at 400 ppm ([5]; spray rate 400 ppm) [%] | mortality at 200 ppm ([6]; spray rate 200 ppm) [%] | mortality at 400 ppm ([6]; spray rate 400 ppm) [%] | DOWN MDEW [7] | LEAF RUST [8] | RICE BLAST [9] | further results |
| --- | --- | --- | --- | --- | --- | --- | --- | --- | --- | --- | --- | --- | --- | --- |
| Fc1cccc2c(NCCc3ccc(-c4ccccc4)cc3)ncnc12 [Example 102, 8-fluoro-N-[2-(1,1'-biphenyl)-4-ylethyl]-4-quinazolinamine] | 80 | 100 | ++ (++ = 90-100% control at 400 ppm) | 0 | 0 | ++ (++ = 90-100% control at 400 ppm) | 80 | 90 | 80 | 90 | ++ (++ = 90-100% control at 400 ppm) | +++ (+++ = 90-100% control at 100 ppm) | +++ (+++ = 90-100% control at 100 ppm) | – |
| N#Cc1ccc(CCOc2ncnc3ccccc23)cc1 [Example 183, 4-[2-[(4-quinazolinyl)oxy]ethyl]benzonitrile] | 0 | 0 | + (+ = 20-89% control at 400 ppm) | 0 | 80 | - (- = 0-19% control at 400 ppm) | 0 | 0 | 0 | 0 | + (+ = 20-89% control at 400 ppm) | +++ (+++ = 90-100% control at 100 ppm) | ++ (++ = 90-100% control at 400 ppm) | – |
| Clc1cccc(CCOc2ncnc3ccccc23)c1 [Example 41, 4-[2-(3-chlorophenyl)ethoxy]quinazoline] | – | 0 | +++ (+++ = 90-100% control at 100 ppm) | – | 0 | - (- = 0-19% control at 400 ppm) | – | 80 | – | 80 | +++ (+++ = 90-100% control at 100 ppm) | +++ (+++ = 90-100% control at 100 ppm) | ++ (++ = 90-100% control at 400 ppm) | SAW RESULTS % [1]: 0%; CRW RESULTS % [3]: 0%; SM RESULTS % [5]: 0%; MA RESULTS % [6]: 100% |
| c1ccc2c(CCNc3ncnc4ccccc34)cccc2c1 [Example 23, N-[2-(1-naphthyl)ethyl]-4-quinazolinamine] | 0 | 0 | - (- = 0-19% control at 400 ppm) | 0 | 0 | - (- = 0-19% control at 400 ppm) | 0 | 0 | 0 | 0 | + (+ = 20-89% control at 400 ppm) | + (+ = 20-89% control at 400 ppm) | + (+ = 20-89% control at 400 ppm) | – |
| CC(COc1ncnc2ccccc12)c1ccccc1 (stereo not shown) [Example 60, 4-(2-phenylpropoxy)quinazoline] | – | 0 | + (+ = 20-89% control at 400 ppm) | – | 0 | - (- = 0-19% control at 400 ppm) | – | 100 | – | 100 | ++ (++ = 90-100% control at 400 ppm) | + (+ = 20-89% control at 400 ppm) | +++ (+++ = 90-100% control at 100 ppm) | – |
| Fc1ccccc1Oc1ccc(CCOc2ncnc3ccccc23)cc1 [Example 162, 4-(2-[4-(2-fluorophenoxy)phenyl]ethoxy]quinazoline] | 60 | 0 | +++ (+++ = 90-100% control at 100 ppm) | 0 | 100 | - (- = 0-19% control at 400 ppm) | 100 | 100 | 80 | 80 | +++ (+++ = 90-100% control at 100 ppm) | +++ (+++ = 90-100% control at 100 ppm) | +++ (+++ = 90-100% control at 100 ppm) | – |
| CC(C)(C)c1ccc(CCCCOc2ncnc3c(F)cccc23)cc1 [Example 200, 8-fluoro-4-[4-[4-(t-butyl)phenyl]butoxy]quinazoline] | – | – | +++ (+++ = 90-100% control at 100 ppm) | – | – | - (- = 0-19% control at 400 ppm) | – | – | – | – | +++ (+++ = 90-100% control at 100 ppm) | + (+ = 20-89% control at 400 ppm) | +++ (+++ = 90-100% control at 100 ppm) | mortality at 200 ppm ([1]; Southern armyworm, sprayed squash leaves, RATE 200 PPM): 0%; mortality at 400 ppm ([1]; Southern armyworm, sprayed squash leaves, RATE 400 PPM): 0%; mortality at 12 ppm ([3]; corn rootworm, CRW RATE 12.00 PPM): 100%; mortality at 24 ppm ([3]; corn rootworm, CRW RATE 24.00 PPM): 100%; mortality at 200 ppm ([5]; twospotted spider mites, sprayed squash cotyledons, RATE 200 PPM): 80%; mortality at 400 ppm ([5]; twospotted spider mites, sprayed squash cotyledons, RATE 400 PPM): 100%; mortality at 200 ppm ([6]; melon aphids, sprayed squash cotyledons, RATE 200 PPM): 60%; mortality at 400 ppm ([6]; melon aphids, sprayed squash cotyledons, RATE 400 PPM): 80% |
| CC(C)c1cccc(C(C)C)c1OCCOc1ncnc2ccccc12 [Example 181, 4-[2-[2,6-bis(i-propyl)phenoxy]ethoxy]quinazoline] | 0 | 0 | ++ (++ = 90-100% control at 400 ppm) | 0 | 0 | - (- = 0-19% control at 400 ppm) | 0 | 40 | 60 | 50 | + (+ = 20-89% control at 400 ppm) | - (- = 0-19% control at 400 ppm) | + (+ = 20-89% control at 400 ppm) | – |
| Fc1cccc2c(NCCc3ccc(Oc4ccccc4)cc3)ncnc12 [Example 101, 8-fluoro-N-[2-(4-phenoxyphenyl)ethyl]-4-quinazolinamine] | 100 | 0 | + (+ = 20-89% control at 400 ppm) | 100 | 0 | ++ (++ = 90-100% control at 400 ppm) | 100 | 100 | 80 | 100 | +++ (+++ = 90-100% control at 100 ppm) | - (- = 0-19% control at 400 ppm) | +++ (+++ = 90-100% control at 100 ppm) | – |
| COc1ccc(CCOc2ncnc3ccccc23)cc1 [Example 49, 4-[2-(4-methoxyphenyl)ethoxy]quinazoline] | – | 0 | +++ (+++ = 90-100% control at 100 ppm) | – | 0 | - (- = 0-19% control at 400 ppm) | – | 80 | – | 0 | +++ (+++ = 90-100% control at 100 ppm) | +++ (+++ = 90-100% control at 100 ppm) | +++ (+++ = 90-100% control at 100 ppm) | SAW RESULTS % [1]: 0%; CRW RESULTS % [3]: 0%; SM RESULTS % [5]: 90%; MA RESULTS % [6]: 100% |
| c1ccc(Sc2cccc(CCOc3ncnc4ccccc34)c2)cc1 [Example 137, 4-[2-[3-(phenylthio)phenyl]ethoxy]quinazoline] | 0 | 0 | +++ (+++ = 90-100% control at 100 ppm) | 0 | 100 | - (- = 0-19% control at 400 ppm) | 0 | 0 | 60 | 0 | +++ (+++ = 90-100% control at 100 ppm) | +++ (+++ = 90-100% control at 100 ppm) | +++ (+++ = 90-100% control at 100 ppm) | – |
